Source: patent publication EP1724268A1, “COMPOUND HAVING TGF-BETA INHIBITORY ACTIVITY AND PHARMACEUTICAL COMPOSITION CONTAINING SAME” (KIRIN BEER KABUSHIKI KAISHA, priority 2004, dated 2005)
Read-outs that look alike come from different tables or passages of the source.

Test system: TGFβ signal
Experiment: TGFβ signal inhibitory activity, (SBE)4-Luc reporter in A549 cells (Test Examples 1A and 1B)
Assay type: cell-based, human
Conditions: Homo sapiens, A549, read-out: TGFβ inhibition rate, %
Summary of the method: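 Compounds at 3 µM and 10 µM (some 1 µM) were added with 2 ng/ml TGFβ-1 to A549 cells stably expressing an SBE-driven luciferase, then cultured 4 hr. Chemiluminescent luciferase signal gave % inhibition versus TGFβ-alone and no-TGFβ controls.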

[1] = 3 µM, compounds of Reference Examples (Test Example 1B)
[2] = 10 µM, compounds of Reference Examples (Test Example 1B)
[3] = test compound 3 µM, TGFβ-1 2 ng/ml, 4 hr, Table 1A
[4] = test compound 10 µM, TGFβ-1 2 ng/ml, 4 hr, Table 1A
[5] = test compound 3 µM, Reference Examples, Table 1B
[6] = test compound 10 µM, Reference Examples, Table 1B

SMILES: COc1cc2nccc(Oc3cc4ccncc4cc3C)c2cc1OC [Compound r300, 6,7-Dimethoxy-4-(7-methyl-isoquinolin-6-yloxy)-quinoline]
- inhibition at 3 µM [1]: 9%
- inhibition at 10 µM [2]: 63%

SMILES: COc1cc2nccc(Oc3ccc(C)nc3-c3ccc(C)cc3)c2cc1OC [Compound r242]
- inhibition at 3 µM [1]: 68%
- inhibition at 10 µM [2]: 99%

SMILES: Cc1csc2ncnc(Oc3cc4cccnc4nc3-c3ccccc3)c12 [Compound 77, 3-(5-Methyl-thieno[2,3-d]pyrimidin-4-yloxy)-2-phenyl-[1,8]naphthyridine]
- inhibition at 3 µM [3]: 93%
- inhibition at 10 µM [4]: 99%

SMILES: COc1cc2nccc(Oc3cc4cccnc4nc3-c3ccc(C#N)cc3)c2cc1OC [Compound 86, 4-[3-(6,7-Dimethoxy-quinolin-4-yloxy)-[1,8]naphthyridin-2-yl]-benzonitrile]
- inhibition at 3 µM [3]: 26%
- inhibition at 10 µM [4]: 74%

SMILES: Cc1ccc(-c2nc(C)c(C)cc2Oc2ccnc3cc(C(F)(F)F)ccc23)nc1 [r433]
- inhibition at 3 µM [1]: 91%
- inhibition at 10 µM [2]: 100%

SMILES: COc1cc2nccc(Oc3ccc(C)nc3-c3cnn(C)c3)c2cc1OC [r438]
- inhibition at 3 µM [1]: 99%
- inhibition at 10 µM [2]: 100%

SMILES: CCOC(=O)/C=C/c1cc2nccc(Oc3cc4ccccc4nc3C)c2cc1OC [Compound r413]
- inhibition at 3 µM [1]: 31%
- inhibition at 10 µM [2]: 76%

SMILES: COc1cc2c(Oc3cc(C)c(C)nc3-c3cccnc3)ccnc2cc1OCC(CO)CO [Compound r350]
- inhibition at 3 µM [1]: 96%

SMILES: COc1cc2c(Oc3cc(C)c(C)nc3-c3cccnc3)ccnc2cc1OCC(O)CO (centres unmarked) [Compound r349]
- inhibition at 3 µM [1]: 96%

SMILES: COc1cc2nccc(Oc3cc(C)c(C)nc3-c3ccccn3)c2cc1NCCO [Compound 154, 2-[4-(5,6-Dimethyl-[2,2']bipyridinyl-3-yloxy)-7-methoxy-quinolin-6-ylamino]-ethanol]
- inhibition at 3 µM [3]: 99%
- inhibition at 10 µM [4]: 100%

SMILES: COc1cc2nccc(Oc3cc4cccnc4nc3C)c2cc1F [Compound 160, 3-(6-Fluoro-7-methoxy-quinolin-4-yloxy)-2-methyl-[1,8]naphthyridine]
- inhibition at 3 µM [3]: 56%
- inhibition at 10 µM [4]: 87%

SMILES: Cc1cc(Oc2ccnc3ccccc23)c(-c2ccccn2)nc1C [Compound 1, 5,6-Dimethyl-3-(quinolin-4-yloxy)-[2,2']bipyridine]
- inhibition at 3 µM [3]: 100%
- inhibition at 10 µM [4]: 100%

SMILES: COc1cc2c(Oc3cc4ccccc4nc3C)ccnc2cc1O [Compound r352, 6-Methoxy-4-(2-methyl-quinolin-3-yloxy)-quinolin-7-ol]
- inhibition at 3 µM [1]: 14%
- inhibition at 10 µM [2]: 68%

SMILES: Clc1ccc2ncnc(Oc3cc4cccnc4nc3-c3ccccc3)c2c1 [Compound 68, 6-Chloro-4-(2-phenyl-[1,8]naphthyridin-3-yloxy)-quinazoline]
- inhibition at 3 µM [3]: 43%
- inhibition at 10 µM [4]: 91%

SMILES: COc1cc2nccc(Oc3ccc(C)nc3-c3cccc(NC(C)=O)c3)c2cc1OC [Compound r236]
- inhibition at 3 µM [1]: 90%
- inhibition at 10 µM [2]: 100%

SMILES: COc1cc2c(Oc3ccc(C)cc3C(=O)c3ccccc3)ccnc2cc1OCCCCN1CCNCC1 [Compound r147]
- inhibition at 3 µM [5]: 98%
- inhibition at 10 µM [6]: 100%

SMILES: CCC(O)c1cc(C)ccc1Oc1ccnc2cc(OC)c(OC)cc12 (centres unmarked) [Compound r9, 1-{2-[(6,7-Dimethoxy-4-quinolyl)oxy]-5-methylphenyl}-1-propanol]
- inhibition at 3 µM [5]: 29%
- inhibition at 10 µM [6]: 77%

SMILES: COc1ccc2nccc(Oc3cc(C)c(C)nc3-c3ccccn3)c2c1 [Compound 4, 3-(6-Methoxy-quinolin-4-yloxy)-5,6-dimethyl-[2,2']bipyridine]
- inhibition at 1 µM (test compound 1 µM, TGFβ-1 2 ng/ml, 4 hr, Table 1A): 94%
- inhibition at 3 µM [3]: 100%

SMILES: Cc1cc(Oc2ccnc3c(F)cc(F)cc23)c(-c2ccccn2)nc1C [Compound 111, 3-(6,8-Difluoro-quinolin-4-yloxy)-5,6-dimethyl-[2,2']bipyridine]
- inhibition at 3 µM [3]: 43%
- inhibition at 10 µM [4]: 84%

SMILES: COc1ccc(Oc2ccnc3cc(OCCCl)c(OC)cc23)c(C(C)=O)c1 [r119]
- inhibition at 3 µM [5]: 96%
- inhibition at 10 µM [6]: 97%

SMILES: COc1cc2nccc(Oc3ccc(C)cc3C(=O)C3CCCCC3)c2cc1OC [Compound r59]
- inhibition at 3 µM [5]: 65%
- inhibition at 10 µM [6]: 99%

SMILES: COc1cc2c(Oc3cc(C)c(C)nc3-c3ccccn3)ccnc2cc1OCCCCO [Compound r445]
- inhibition at 3 µM [1]: 99%

SMILES: COc1cc2c(Oc3ccc(C)cc3C(=O)c3ccccc3)ccnc2cc1OCC(O)CN1CCNCC1 (centres unmarked) [Compound r157]
- inhibition at 3 µM [5]: 100%
- inhibition at 10 µM [6]: 100%

SMILES: COc1cc2nccc(Oc3ccc(C)nc3-c3ccc(C(C)C)cc3)c2cc1OC [Compound r243]
- inhibition at 3 µM [1]: -7%
- inhibition at 10 µM [2]: 62%

SMILES: COc1cc2nccc(Oc3ccc(C)cc3C(=O)c3ccc(C(C)(C)C)cc3)c2cc1OC [r73]
- inhibition at 3 µM [5]: 24%
- inhibition at 10 µM [6]: 81%

SMILES: Cc1ccc(-c2ccc3c(Oc4cc(C)c(C)nc4-c4ccccn4)ccnc3c2)cc1 [Compound 20, 5,6-Dimethyl-3-(7-p-tolyl-quinolin-4-yloxy)-[2,2']bipyridine]
- inhibition at 3 µM [3]: 90%
- inhibition at 10 µM [4]: 100%

SMILES: CCc1ccc(Oc2ccnc3cc(C(N)=O)c(OCc4ccccc4)cc23)c(-c2ncccn2)n1 [Compound 193, 6-Benzyloxy-4-(6-ethyl-2-pyrimidin-2-yl-pyridin-3-yloxy)-quinoline-7-carboxylic acid amide]
- inhibition at 3 µM [3]: 80%

SMILES: CCCCC(CC)COC(=O)c1ccccc1Oc1ccnc2cc(OC)c(OC)cc12 (centres unmarked) [Compound r101]
- inhibition at 3 µM [5]: 0%
- inhibition at 10 µM [6]: 64%

SMILES: Cc1cc(Oc2ccnc3ccc(-c4ccccn4)cc23)c(-c2ccccn2)nc1C [Compound 174, 5,6-Dimethyl-3-(6-pyridin-2-yl-quinolin-4-yloxy)-[2,2']bipyridine]
- inhibition at 3 µM [3]: 89%
- inhibition at 10 µM [4]: 100%

SMILES: COc1cc2c(Oc3cc4ccccc4nc3C)ccnc2cc1OCCN1CCCCC1 [Compound r358]
- inhibition at 3 µM [1]: 100%
- inhibition at 10 µM [2]: 100%

SMILES: COc1cc2nccc(Oc3cc4cccnc4nc3-c3cccnc3)c2cc1OC [Compound 88, 3-(6,7-Dimethoxy-quinolin-4-yloxy)-2-pyridin-3-yl-[1,8]naphthyridine]
- inhibition at 3 µM [3]: 90%
- inhibition at 10 µM [4]: 100%

SMILES: COc1cc2c(Oc3cc4cccnc4nc3C)ccnc2cc1OCCN1CCCCC1 [r440]
- inhibition at 3 µM [1]: 100%
- inhibition at 10 µM [2]: 100%

SMILES: COc1cc2c(Oc3cc4cccnc4nc3C)ccnc2cc1OCCN1CCC(O)CC1 [Compound r451]
- inhibition at 3 µM [1]: 99%
- inhibition at 10 µM [2]: 100%

SMILES: c1ccc(-c2nc3ncccc3cc2Oc2ncnc3ccsc23)cc1 [Compound 75, 2-Phenyl-3-(thieno[3,2-d]pyrimidin-4-yloxy)-[1,8]naphthyridine]
- inhibition at 3 µM [3]: 84%
- inhibition at 10 µM [4]: 98%

SMILES: COc1cc2nccc(Oc3ccc(C)nc3-c3ccc(O)cc3)c2cc1OC [Compound r248]
- inhibition at 3 µM [1]: 99%
- inhibition at 10 µM [2]: 100%

SMILES: CCc1ccc(Oc2ccnc3ccc(OCCOC(=O)C(C)(C)C)cc23)c(-c2ncccn2)n1 [Compound 207, 2-[4-(6-Ethyl-2-pyrimidin-2-yl-pyridin-3-yloxy)-quinolin-6-yloxy]-ethyl 2,2-dimethyl-propanate]
- inhibition at 3 µM [3]: 93%

SMILES: c1ccc(-c2nc3ncccc3cc2Oc2ncnc3sccc23)cc1 [Compound 76, 2-Phenyl-3-(thieno[2,3-d]pyrimidin-4-yloxy)-[1,8]naphthyridine]
- inhibition at 3 µM [3]: 44%
- inhibition at 10 µM [4]: 83%

SMILES: COc1cc2nccc(Oc3cc(C)c(C)nc3-c3cc(C)ccn3)c2cc1OC [Compound r273]
- inhibition at 3 µM [1]: 99%
- inhibition at 10 µM [2]: 100%

SMILES: COc1cc2nccc(Oc3cc4cccnc4nc3-c3ccccc3)c2cc1OCCO [Compound 125, 2-[7-Methoxy-4-(2-phenyl-[1,8]naphthyridin-3-yloxy)-quinolin-6-yloxy]-ethanol]
- inhibition at 3 µM [3]: 99%
- inhibition at 10 µM [4]: 100%

SMILES: CCc1ccc(Oc2ccnc3cc(OC)c(OC)cc23)c(C(C)=O)c1 [r172]
- inhibition at 3 µM [1]: 82%
- inhibition at 10 µM [2]: 99%

SMILES: COc1cc2c(Oc3cc(C)c(C)nc3-c3ccccn3)ccnc2cc1OCc1ccccc1 [Compound r337]
- inhibition at 3 µM [1]: 98%

SMILES: COc1cc2nccc(Oc3cc4ccccc4nc3C)c2cc1OCc1ccccc1 [Compound r415, 6-Benzyloxy-7-methoxy-4-(2-methyl-quinolin-3-yloxy)-quinoline]
- inhibition at 3 µM [1]: 77%
- inhibition at 10 µM [2]: 100%

SMILES: COc1cc2nccc(Oc3ccccc3C(=O)/C=C/c3ccccc3)c2cc1OC [r57]
- inhibition at 3 µM [5]: 10%
- inhibition at 10 µM [6]: 55%

SMILES: CCc1ccc(Oc2ccnc3cc(C(N)=O)c(Cl)cc23)c(-c2ccccn2)n1 [Compound 185, 6-Chloro-4-(6-ethyl-[2,2']bipyridinyl-3-yloxy)-quinoline-7-carboxylic acid amide]
- inhibition at 3 µM [3]: 96%
- inhibition at 10 µM [4]: 100%

SMILES: COc1ccc(Oc2ccnc3cc(OCCCCl)c(OC)cc23)c(C(C)=O)c1 [Compound r121]
- inhibition at 3 µM [5]: 100%
- inhibition at 10 µM [6]: 100%

SMILES: CCOC(=O)c1cc(C(C)=O)ccc1Oc1ccnc2cc(OC)c(OC)cc12 [Compound r88]
- inhibition at 3 µM [5]: 70%
- inhibition at 10 µM [6]: 94%

SMILES: COc1cc2nccc(Oc3cc(C)c(C)nc3-c3ncccc3C)c2cc1OC [r429]
- inhibition at 3 µM [1]: 52%
- inhibition at 10 µM [2]: 94%

SMILES: COc1cc2nccc(Oc3ccc4c(c3)COC(=O)N4)c2cc1OC [Compound r23, 6-[(6,7-Dimethoxy-4-quinolyl)oxy]-1,4-dihydro-2H-3,1-benzoxazin-2-one]
- inhibition at 3 µM [5]: 56%
- inhibition at 10 µM [6]: 91%

SMILES: COc1cc2nccc(Oc3ccccc3C(=O)Nc3ccccc3)c2cc1OC [r104]
- inhibition at 3 µM [5]: 0%
- inhibition at 10 µM [6]: 58%
